Test results reported in ChEMBL document CHEMBL3751764, “Synthesis and in vitro antiproliferative activity of novel pyrazolo[3,4-d]pyrimidine derivatives” (Medchemcomm, 2015).

Assays:
SN12C = assay: Cytotoxicity against human SN12C cells assessed as cell growth at 10 uM after 72 hrs by SRB assay relative to control; assay type: functional; settings: read-out: Activity
SK-MEL-28 = assay: Cytotoxicity against human SK-MEL-28 cells assessed as cell growth at 10 uM after 72 hrs by SRB assay relative to control; assay type: functional; settings: SK-MEL-28, 72 h, read-out: Activity
SR = assay: Cytotoxicity against human SR cells assessed as cell growth at 10 uM after 72 hrs by SRB assay relative to control; assay type: functional; settings: read-out: Activity
[1] = Cytotoxicity against human SF539 cells assessed as cell growth at 10 uM after 72 hrs by SRB assay relative to control; assay type: functional; settings: SF-539, 72 h, read-out: Activity
NCI-H23 = assay: Cytotoxicity against human NCI-H23 cells assessed as cell growth at 10 uM after 72 hrs by SRB assay relative to control; assay type: functional; settings: NCI-H23, 72 h, read-out: Activity
SK-MEL-2 = assay: Cytotoxicity against human SK-MEL-2 cells assessed as cell growth at 10 uM after 72 hrs by SRB assay relative to control; assay type: functional; settings: SK-MEL-2, 72 h, read-out: Activity
[2] = target: Vascular endothelial growth factor receptor 2 (Homo sapiens, UniProt P35968); assay: Inhibition of human VEGFR2 at 10 uM after 20 to 40 mins by liquid scintillation counting analysis in presence of […]; set-up: scale not given: the % may be the effect or the level left
Sequence of Vascular endothelial growth factor receptor 2 (P35968 whole entry): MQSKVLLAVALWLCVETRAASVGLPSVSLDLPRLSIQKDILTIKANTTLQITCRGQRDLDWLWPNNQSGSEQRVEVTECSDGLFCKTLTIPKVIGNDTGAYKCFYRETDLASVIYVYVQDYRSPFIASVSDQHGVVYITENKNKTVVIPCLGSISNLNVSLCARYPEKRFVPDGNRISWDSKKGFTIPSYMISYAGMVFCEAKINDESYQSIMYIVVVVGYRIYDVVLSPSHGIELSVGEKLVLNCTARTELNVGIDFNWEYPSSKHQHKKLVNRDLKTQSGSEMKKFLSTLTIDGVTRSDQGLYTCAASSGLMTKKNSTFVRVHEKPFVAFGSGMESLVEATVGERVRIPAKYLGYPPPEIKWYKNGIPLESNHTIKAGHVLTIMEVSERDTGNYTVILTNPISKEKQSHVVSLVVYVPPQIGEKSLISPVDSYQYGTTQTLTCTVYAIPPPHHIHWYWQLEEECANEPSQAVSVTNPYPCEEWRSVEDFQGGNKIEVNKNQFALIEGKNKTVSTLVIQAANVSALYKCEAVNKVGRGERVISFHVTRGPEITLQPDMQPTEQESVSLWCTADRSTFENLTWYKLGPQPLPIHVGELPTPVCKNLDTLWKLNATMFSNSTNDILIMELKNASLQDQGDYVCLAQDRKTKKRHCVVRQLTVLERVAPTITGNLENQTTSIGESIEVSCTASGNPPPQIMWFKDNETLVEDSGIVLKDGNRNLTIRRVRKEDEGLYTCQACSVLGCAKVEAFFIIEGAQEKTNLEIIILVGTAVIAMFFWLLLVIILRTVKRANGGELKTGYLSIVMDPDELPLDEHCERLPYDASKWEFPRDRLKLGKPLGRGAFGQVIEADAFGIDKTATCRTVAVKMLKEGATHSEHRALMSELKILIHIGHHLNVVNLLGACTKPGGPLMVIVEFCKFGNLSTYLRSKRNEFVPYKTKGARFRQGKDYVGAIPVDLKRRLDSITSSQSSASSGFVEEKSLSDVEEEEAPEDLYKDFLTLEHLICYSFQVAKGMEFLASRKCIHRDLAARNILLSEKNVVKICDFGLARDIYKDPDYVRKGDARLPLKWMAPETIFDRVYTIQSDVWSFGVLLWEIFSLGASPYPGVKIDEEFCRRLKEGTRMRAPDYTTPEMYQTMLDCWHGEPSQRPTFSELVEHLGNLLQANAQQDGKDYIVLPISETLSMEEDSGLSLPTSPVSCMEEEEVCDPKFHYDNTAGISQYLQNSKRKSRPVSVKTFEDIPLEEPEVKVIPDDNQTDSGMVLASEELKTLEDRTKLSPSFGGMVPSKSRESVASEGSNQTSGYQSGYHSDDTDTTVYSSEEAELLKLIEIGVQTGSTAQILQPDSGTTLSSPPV

[3] = Cytotoxicity against human IGROV1 cells assessed as cell growth at 10 uM after 72 hrs by SRB assay relative to control; assay type: functional; settings: IGROV-1, 72 h, read-out: Activity
[4] = Cytotoxicity against human TK10 cells assessed as cell growth at 10 uM after 72 hrs by SRB assay relative to control; assay type: functional; settings: TK-10, 72 h, read-out: Activity
[5] = Cytotoxicity against human RXF393 cells assessed as cell growth at 10 uM after 72 hrs by SRB assay relative to control; assay type: functional; settings: RXF 393, 72 h, read-out: Activity
MDA-MB-435 = assay: Cytotoxicity against human MDA-MB-435 cells assessed as cell growth at 10 uM after 72 hrs by SRB assay relative to control; assay type: functional; settings: MDA-MB-435, 72 h, read-out: Activity
[6] = Cytotoxicity against human HCT116 cells assessed as cell growth at 10 uM after 72 hrs by SRB assay relative to control; assay type: functional; settings: HCT-116, 72 h, read-out: Activity
MDA-MB-231 = assay: Cytotoxicity against human MDA-MB-231 cells assessed as cell growth at 10 uM after 72 hrs by SRB assay relative to control; assay type: functional; settings: MDA-MB-231, 72 h, read-out: Activity
[7] = Cytotoxicity against human OVCAR8 cells assessed as cell growth at 10 uM after 72 hrs by SRB assay relative to control; assay type: functional; settings: OVCAR-8, 72 h, read-out: Activity
HT-29 = assay: Cytotoxicity against human HT-29 cells assessed as cell growth at 10 uM after 72 hrs by SRB assay relative to control; assay type: functional; settings: HT-29, 72 h, read-out: Activity
[8] = Cytotoxicity against human OVCAR5 cells assessed as cell growth at 10 uM after 72 hrs by SRB assay relative to control; assay type: functional; settings: OVCAR-5, 72 h, read-out: Activity
T47D = assay: Cytotoxicity against human T47D cells assessed as cell growth at 10 uM after 72 hrs by SRB assay relative to control; assay type: functional; settings: read-out: Activity
[9] = Cytotoxicity against human BT549 cells assessed as cell growth at 10 uM after 72 hrs by SRB assay relative to control; assay type: functional; settings: BT-549, 72 h, read-out: Activity
[10] = Cytotoxicity against human DU145 cells assessed as cell growth at 10 uM after 72 hrs by SRB assay relative to control; assay type: functional; settings: DU-145, 72 h, read-out: Activity
[11] = Cytotoxicity against human OVCAR3 cells assessed as cell growth at 10 uM after 72 hrs by SRB assay relative to control; assay type: functional; settings: OVCAR-3, 72 h, read-out: Activity
[12] = Cytotoxicity against human SNB75 cells assessed as cell growth at 10 uM after 72 hrs by SRB assay relative to control; assay type: functional; settings: SNB-75, 72 h, read-out: Activity
[13] = Cytotoxicity against human HL-60(TB) cells assessed as cell growth at 10 uM after 72 hrs by SRB assay relative to control; assay type: functional; settings: HL-60, 72 h, read-out: Activity
M14 = assay: Cytotoxicity against human M14 cells assessed as cell growth at 10 uM after 72 hrs by SRB assay relative to control; assay type: functional; settings: M14, 72 h, read-out: Activity
[14] = Cytotoxicity against human RPMI8226 cells assessed as cell growth at 10 uM after 72 hrs by SRB assay relative to control; assay type: functional; settings: RPMI-8226, 72 h, read-out: Activity
[15] = Cytotoxicity against human UACC62 cells assessed as cell growth at 10 uM after 72 hrs by SRB assay relative to control; assay type: functional; settings: UACC-62, 72 h, read-out: Activity
[16] = Cytotoxicity against human UACC257 cells assessed as cell growth at 10 uM after 72 hrs by SRB assay relative to control; assay type: functional; settings: UACC-257, 72 h, read-out: Activity
NCI-H460 = assay: Cytotoxicity against human NCI-H460 cells assessed as cell growth at 10 uM after 72 hrs by SRB assay relative to control; assay type: functional; settings: NCI-H460, 72 h, read-out: Activity
[17] = Cytotoxicity against human COLO205 cells assessed as cell growth at 10 uM after 72 hrs by SRB assay relative to control; assay type: functional; settings: COLO 205, 72 h, read-out: Activity
MCF7 = assay: Cytotoxicity against human MCF7 cells assessed as cell growth at 10 uM after 72 hrs by SRB assay relative to control; assay type: functional; settings: MCF7, 72 h, read-out: Activity
[18] = Cytotoxicity against human SW620 cells assessed as cell growth at 10 uM after 72 hrs by SRB assay relative to control; assay type: functional; settings: SW-620, 72 h, read-out: Activity
[19] = Cytotoxicity against human SF268 cells assessed as cell growth at 10 uM after 72 hrs by SRB assay relative to control; assay type: functional; settings: SF-268, 72 h, read-out: Activity
[20] = Cytotoxicity against human OVCAR4 cells assessed as cell growth at 10 uM after 72 hrs by SRB assay relative to control; assay type: functional; settings: OVCAR-4, 72 h, read-out: Activity
786-0 = assay: Cytotoxicity against human 786-0 cells assessed as cell growth at 10 uM after 72 hrs by SRB assay relative to control; assay type: functional; settings: 786-0, 72 h, read-out: Activity
[21] = Cytotoxicity against human HOP62 cells assessed as cell growth at 10 uM after 72 hrs by SRB assay relative to control; assay type: functional; settings: HOP-62, 72 h, read-out: Activity
[22] = Cytotoxicity against human PC3 cells assessed as cell growth at 10 uM after 72 hrs by SRB assay relative to control; assay type: functional; settings: PC-3, 72 h, read-out: Activity

With `O=C(NC1CCCCC1)c1ccc(Nc2ncnc3c2cnn3-c2ccccc2)cc1` the growth at 10 µM (SN12C) was 19%, the growth at 10 µM (SK-MEL-28) was 62.2% and the growth at 10 µM (SR) was 67.5%. It also gave a growth at 10 µM [1] of 43.7%, a growth at 10 µM (NCI-H23) of 72% and a growth at 10 µM (SK-MEL-2) of 79.1%. It also gave an Activity [2] of 7%, a growth at 10 µM [3] of 71.1% and a growth at 10 µM [4] of 51%. It also gave a growth at 10 µM [5] of 62.2%, a growth at 10 µM (MDA-MB-435) of 81.2% and a growth at 10 µM [6] of 37.6%. It also gave a growth at 10 µM (MDA-MB-231) of 8.76%, a growth at 10 µM [7] of 21.6% and a growth at 10 µM (HT-29) of 70.2%. It also gave a growth at 10 µM [8] of 80.3%, a growth at 10 µM (T47D) of 76.8% and a growth at 10 µM [9] of 59.8%. For the same molecule, the growth at 10 µM [10] was 54.6%, the growth at 10 µM [11] was 87.4% and the growth at 10 µM [12] was -20.4%. It also gave a growth at 10 µM [13] of 106%, a growth at 10 µM (M14) of 69.1% and a growth at 10 µM [14] of 89.5%. For the same molecule, the growth at 10 µM [15] was 63.9%, the growth at 10 µM [16] was 56.5% and the growth at 10 µM (NCI-H460) was 42.2%. The growth at 10 µM [17] was 65.4%, the growth at 10 µM (MCF7) was 82.8% and the growth at 10 µM [18] was 72.9%. It also gave a growth at 10 µM [19] of 36.9%, a growth at 10 µM [20] of 30.3% and a growth at 10 µM (786-0) of 72.1%. It also gave a growth at 10 µM [21] of -66.5% and a growth at 10 µM [22] of 53.3%.
`O=c1sc2cc(Nc3ncnc4c3cnn4-c3ccccc3)ccc2n1Cc1ccc(Cl)cc1` gave a growth at 10 µM (SN12C) of 75%, a growth at 10 µM (SK-MEL-28) of 90.1% and a growth at 10 µM (SR) of 80.6%. The growth at 10 µM [1] was 79.2%, the growth at 10 µM (NCI-H23) was 84.7% and the growth at 10 µM (SK-MEL-2) was 88%. It also gave an Activity [2] of -7%, a growth at 10 µM [3] of 81.8% and a growth at 10 µM [4] of 105%. It also gave a growth at 10 µM [5] of 79.5%, a growth at 10 µM (MDA-MB-435) of 84.2% and a growth at 10 µM [6] of 80.3%. For the same molecule, the growth at 10 µM (MDA-MB-231) was 57.7%, the growth at 10 µM [7] was 87.9% and the growth at 10 µM (HT-29) was 106%. The growth at 10 µM [8] was 75.1%, the growth at 10 µM (T47D) was 62.3% and the growth at 10 µM [9] was 101%. The growth at 10 µM [10] was 94.5%, the growth at 10 µM [11] was 86.6% and the growth at 10 µM [12] was 88.3%. It also gave a growth at 10 µM [13] of 66.9%, a growth at 10 µM (M14) of 82.8% and a growth at 10 µM [14] of 63.5%. The growth at 10 µM [15] was 58.3%, the growth at 10 µM [16] was 92.6% and the growth at 10 µM (NCI-H460) was 83.5%. For the same molecule, the growth at 10 µM [17] was 92.7%, the growth at 10 µM (MCF7) was 85.3% and the growth at 10 µM [18] was 84.4%. For the same molecule, the growth at 10 µM [19] was 85.6%, the growth at 10 µM [20] was 87% and the growth at 10 µM (786-0) was 93.7%. It also gave a growth at 10 µM [21] of 94% and a growth at 10 µM [22] of 55.6%.
